How the values were obtained:
[1] = biological target: Poly [ADP-ribose] polymerase 2 (Homo sapiens, UniProt Q9UGN5); experiment: Inhibition of PARP2 (unknown origin)
[2] = biological target: T1, Poly [ADP-ribose] polymerase tankyrase-1 (Homo sapiens, UniProt O95271); experiment: Inhibition of TNKS1 (unknown origin)
T1 sequence (O95271 whole entry): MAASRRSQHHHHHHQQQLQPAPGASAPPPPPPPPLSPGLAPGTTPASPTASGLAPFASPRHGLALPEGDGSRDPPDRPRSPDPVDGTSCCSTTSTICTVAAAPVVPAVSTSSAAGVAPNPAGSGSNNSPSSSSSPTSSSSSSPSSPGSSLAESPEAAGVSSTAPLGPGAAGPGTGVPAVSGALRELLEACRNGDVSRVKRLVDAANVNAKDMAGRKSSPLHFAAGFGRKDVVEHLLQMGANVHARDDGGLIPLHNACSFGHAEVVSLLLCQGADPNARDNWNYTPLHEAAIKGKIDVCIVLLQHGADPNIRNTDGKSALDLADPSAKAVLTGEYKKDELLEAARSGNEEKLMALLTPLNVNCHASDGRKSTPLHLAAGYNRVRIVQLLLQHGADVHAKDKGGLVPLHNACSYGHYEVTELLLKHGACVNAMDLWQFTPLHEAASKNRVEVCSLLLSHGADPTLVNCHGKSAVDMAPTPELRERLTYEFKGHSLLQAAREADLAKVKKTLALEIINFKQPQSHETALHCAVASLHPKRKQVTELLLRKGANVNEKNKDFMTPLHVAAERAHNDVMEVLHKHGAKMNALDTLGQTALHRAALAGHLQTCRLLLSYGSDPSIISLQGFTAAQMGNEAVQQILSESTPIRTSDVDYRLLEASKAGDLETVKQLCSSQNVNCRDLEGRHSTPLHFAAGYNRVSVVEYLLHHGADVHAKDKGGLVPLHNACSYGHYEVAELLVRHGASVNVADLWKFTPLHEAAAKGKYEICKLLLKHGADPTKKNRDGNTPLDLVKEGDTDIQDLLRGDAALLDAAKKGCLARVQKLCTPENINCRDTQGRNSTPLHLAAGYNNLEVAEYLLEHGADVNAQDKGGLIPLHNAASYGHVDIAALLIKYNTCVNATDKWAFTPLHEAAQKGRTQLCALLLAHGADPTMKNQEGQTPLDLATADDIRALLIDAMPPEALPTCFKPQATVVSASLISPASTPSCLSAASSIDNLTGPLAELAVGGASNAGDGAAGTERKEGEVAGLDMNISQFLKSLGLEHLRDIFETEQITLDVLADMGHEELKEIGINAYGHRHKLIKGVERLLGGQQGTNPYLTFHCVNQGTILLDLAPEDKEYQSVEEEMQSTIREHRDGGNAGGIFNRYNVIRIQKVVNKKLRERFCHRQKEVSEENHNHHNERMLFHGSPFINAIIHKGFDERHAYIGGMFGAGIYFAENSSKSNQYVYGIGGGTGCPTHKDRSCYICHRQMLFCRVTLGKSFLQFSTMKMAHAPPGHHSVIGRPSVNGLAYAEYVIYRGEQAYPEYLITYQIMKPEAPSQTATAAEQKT

Sequence of Poly [ADP-ribose] polymerase 2 (Q9UGN5 whole entry): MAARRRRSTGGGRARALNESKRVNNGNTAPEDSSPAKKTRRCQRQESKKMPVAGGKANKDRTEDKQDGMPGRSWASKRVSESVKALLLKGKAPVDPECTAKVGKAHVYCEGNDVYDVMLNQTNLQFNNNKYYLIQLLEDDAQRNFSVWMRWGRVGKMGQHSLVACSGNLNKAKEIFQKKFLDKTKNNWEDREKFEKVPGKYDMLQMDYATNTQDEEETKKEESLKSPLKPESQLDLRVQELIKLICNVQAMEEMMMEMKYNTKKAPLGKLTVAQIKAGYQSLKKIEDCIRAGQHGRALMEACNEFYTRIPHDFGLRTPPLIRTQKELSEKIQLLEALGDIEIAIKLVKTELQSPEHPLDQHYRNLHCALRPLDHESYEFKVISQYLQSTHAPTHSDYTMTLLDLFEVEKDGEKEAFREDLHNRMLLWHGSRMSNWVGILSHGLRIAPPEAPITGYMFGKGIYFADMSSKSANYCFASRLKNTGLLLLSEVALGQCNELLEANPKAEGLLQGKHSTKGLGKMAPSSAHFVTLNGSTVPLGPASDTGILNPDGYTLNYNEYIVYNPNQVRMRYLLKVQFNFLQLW

- IC50 [1]: > 10 µM
- IC50 [2]: 0.86 µM
SMILES: Cc1cc(=O)[nH]c2cc(-c3ccccc3F)ccc12

Reference: ChEMBL document CHEMBL2380224, “Fragment-based ligand design of novel potent inhibitors of tankyrases” (J Med Chem, 2013)
